# Test results taken from patent publication US11904040B2, “Zinc-amino acid-lauryl sulfate complex with antimicrobial activity” (Colgate-Palmolive Company, priority 2018, dated 2024).
# Legend:
# [1] = system: S. mutans; assay: Metabolic inhibition of S. mutans (autotitrator base consumption after glucose); type: cell-based; conditions: for % Metabolic Reduction: S. mutans in 135 mM KCl, final zinc concentration 2.5 ppm (SLS equimolar to LS in Zn(Lys)2(LS)2), pH 7, 30 minutes, vs control containing only bacteria
# Method: The chelation of zinc can modify its efficacy as an antibacterial agent. […] S. mutans is one of the prevalent bacteria present in the oral cavity. A concentrated suspension of S. mutans in 135 mM KCl was treated with a known concentration of zinc salt to obtain a final zinc concentration of 2.5 ppm. […] Using an autotitrator (Methrom Titrando 902) equipped with a 0.01M solution of KOH, the bacterial suspension was equilibrated to pH=7. After equilibrating, glucose was added to the solution. The autotitrator maintained the pH at 7 through the precise addition of KOH solution. The experiment was allowed to proceed for 30 minutes and the volume of base added was recorded at 10 second intervals. After 30 mins, a growth curve of base addition over time was obtained. The area under this curve was compared to the area under the curve for a control sample containing only bacteria and used to calculate a % reduction value. The control sample was analyzed from the same bacterial suspension as the test sample and the two samples were analyzed within 3 hours of each other. In order for data from a given suspension of S. mutans to be included, the control sample must consume at least 5 mL of base solution during the 30 minute time period.
# [2] = Potentiometric titration, stability constants of the Zn, Lysine, SLS system; conditions: 25C, 50:50 glycerin:de-ionized water, 100 mM KNO3, 5 mM Zn
Molecule,% Metabolic Reduction [1],"antibacterial performance compared to corresponding zinc-amino acid complex ([1]; S. mutans metabolic reduction, Table 10)",Log(B) stability constant [2]
"NCCCCC(N)C(=O)O.NCCCCC(N)C(=O)O.[Cl-].[Cl-].[Zn+2] (stereo not shown) [ZLC, [Zn(C6H14N2O2)2Cl]^+Cl^−]",53.90 ± 2.36%,,
"CCCCCCCCCCCCOS(=O)(=O)[O-].[Na+] [Sodium lauryl sulfate, sodium lauryl sulfate]",34.12 ± 1.56%,,
zinc-arginine-lauryl sulfate [Zn(Arg)2(LS)2],72.53 ± 3.76%,directionally improved antibacterial performance compared to [Zn(Arg)2]^2+,
zinc arginate [[Zn(Arg)2]^2+],67.19 ± 0.32%,,
NCCCC[C@H](N)C(=O)O [HLys],,,10.07
O=[N+]([O-])[O-].O=[N+]([O-])[O-].[Zn+2] [Zn(NO3)2],67.16 ± 2.49%,,
